The record followed here is a melting point compilation (Tetko et al.; mined from patent text by program, amines drawn as free bases though some values may be those of a salt).

For orientation: melting point means the temperature, or range, at which the solid turns liquid.

On to `CCN(CC)C(=O)N1CCc2cc(S(=O)(=O)N3C(=O)C(NCCC4CCN(C(=O)OC(C)(C)C)CC4)(c4ccccc4Cl)c4cc(Cl)ccc43)ccc21` (configuration not stated), for which the melting point was determined as 139 °C.

On to `COC(=O)C(CO)NS(=O)(=O)c1ccc(Oc2ccncc2)cc1` (configuration not stated), for which the melting point lay within 137 to 139 °C. To `Cc1cc2c(cc1C(F)(F)F)NC(=O)CC(c1cccc(-c3ccnc(CN(C)CC(C)C)c3)c1)=N2` belongs 188 °C. As for `CNc1ccc(C#Cc2cccc(-c3nc(NC)nc4cc(OC)c(OC)cc34)c2)cn1`, the figure is 136 to 138 °C; as for `CCc1cccc(-c2ccc(S(=O)(=O)N3c4ccccc4CC3C(=O)O)cc2)c1` (configuration not stated), 70 to 72 °C; as for `CC(CN1CCC(c2noc3cc(F)ccc23)CC1)N1Cc2ccccc2C1` (configuration not stated), 164 to 165 °C. For the compound `COc1cc(CNc2ccc(C)cc2)cc(OC)c1OC`, the melting point was in the range of 94 to 96 °C.

For `CCOC(=O)c1nc2ccc(N)cc2[nH]1`, the melting point is 147 to 149 °C. Regarding `COC(=O)C(=O)c1c(F)c(F)c(OCCOc2ccc3ccccc3c2)c(F)c1F`, the melting point lay within 69 to 71 °C. In turn, `COC(=O)COc1c(CCC(C)C)c(OC)cc(OC)c1C(=O)CCc1ccc(OC)c(O)c1` displayed a melting point of 94 to 95 °C. `COC(=O)CCCCCOc1ccc(NC(=O)OCCOC(=O)Nc2ccc(OCCCCCC(=O)OC)cc2)cc1` displayed a melting point of 118 to 120 °C. To `O=C(O)C(O)Cc1ccc(OCCN2CCSc3ccccc32)cc1` (configuration not stated) belongs 74 to 76 °C; to `O=C1NCc2ccc(-c3cccc4cc(Cc5cccc(C(F)(F)F)c5)sc34)cc21`, 151 to 152 °C. Regarding `CC(C)C(=O)c1cn(Cc2c(F)cccc2F)c2sc(-c3ccc([N+](=O)[O-])cc3)c(CBr)c2c1=O`, the melting point is 202 to 204 °C. As for `CN(C)C(=O)Cn1nc(-c2ccccc2O)nc1-c1ccccc1O`, the figure is 196 to 197 °C; as for `O=c1ccn(-c2cccc(C(F)(F)F)c2)nc1-c1ccnn1CC1CC1`, 155 to 157 °C. On to `Cc1cnc2ccc(N)cc2n1`, for which the melting point is 170 to 173 °C. Compound `COc1ccc(CSc2ccc([N+](=O)[O-])cc2C(=O)O)cc1` registered a melting point of 200 to 204 °C. Compound `CC(C)C(=O)c1cnc(C(CC2CCCC2)c2ccc(S(C)(=O)=O)cc2)[nH]1` (configuration not stated) came in with a melting point of 171 to 172 °C. As for `CCOC(=O)C1(Br)Oc2cc(OC(C)=O)ccc2OC1Br` (configuration not stated), the figure is 131 °C; as for `NS(=O)(=O)c1cc2ccc(O)cc2c(S(N)(=O)=O)c1-c1cccc(Cl)c1O`, 135 to 137 °C. To `O=S(=O)(/C=C/c1ccc(F)cc1F)CS(=O)(=O)/C=C/c1ccc(F)cc1F` belongs 193 to 195 °C. To `O=C(/C=C/c1cccc(NC(=O)/C=C/c2ccc3c(c2)OCO3)c1)NO` belongs 128 °C. In turn, `CN1C(=O)N(c2ccc(Cl)cc2)S[N+]1(C)[O-]` (configuration not stated) gave a melting point of 83 to 85 °C. As for `CCNC(=O)CCCC1CCN(Cc2cnc3cc(NC(=O)c4ccc(-c5ccc(F)cc5)cc4)ccc3c2)CC1`, the figure is 209 to 213 °C; as for `COc1cc2ncnc(N3CCN(C(=S)NCc4ccc(N(C)C)cc4)CC3)c2cc1OC`, 177 to 178 °C. As for `CC(C)(C)c1cc(SCCc2n[nH]c(=S)o2)cc(C(C)(C)C)c1O`, the figure is 124 °C. As for `Cc1nc(SCC(=O)c2cc(-c3ccc(C(F)(F)F)cc3)oc2C)sc1CC(=O)O`, the figure is 140 to 143 °C. `CNC(=O)Nc1ccc(OCCCN2CCN(c3ccccc3)CC2)c(OC)c1` gave a melting point of 167 to 169 °C. As for `O=C(COCc1ccccc1Cl)Nc1ccccc1`, the figure is 130 to 132 °C; as for `Cc1cccc(Cl)c1NS(=O)(=O)c1n[nH]c(N)n1`, 217 °C; as for `O=C(O)CCCCCCCCCCCNC(=O)CCCCCCCCCCI`, 107 to 110 °C. As for `CCC(CC)(CC(=O)O)C(=O)O`, the figure is 106 to 109 °C; as for `CS(=O)(=O)OCCc1cc([N+](=O)[O-])ccc1COS(C)(=O)=O`, 88 to 89 °C.

Compound `O=[N+]([O-])c1ccc2ncnc(Nc3ccc4ncccc4c3)c2c1` had a melting point of more than 300 °C. As for `CCOC(=O)c1[nH]c2c(c1O)CCCC2`, the figure is 94 to 95 °C; as for `CC(C)(C)OC(=O)N1CCCC[C@H]1C(OC(=O)Nc1ccc2[nH]ncc2c1)c1cccc(C(=O)O)c1` (some centres not stated), 178 °C; as for `CCCCc1oc2ccccc2c1C(=O)NCc1ccc2c(-c3ccc(Cl)cc3)c(OCC#N)ccc2c1`, 154 to 158 °C.

`CCOC(=O)COc1ccc(-c2nc3ncccc3[nH]2)c(OC)c1` displayed a melting point of 198 °C. To `Nc1ccccc1OCc1nc(Cl)ccc1Cl` belongs 74 to 75 °C. To `Cc1ccc(-c2nn(C(C)(C)C)c(N)c2C#N)cc1` belongs 174 to 176 °C; to `CC(C)c1cccc(C(C)C)c1NC(=O)CNC(c1ccccc1)c1ccccn1` (configuration not stated), 135 to 136 °C.

In turn, `CCc1n[nH]c(CC)c1Oc1cc(Cl)cc(Cl)c1` gave a melting point of 114 to 115 °C. To `COc1ccc2c(c1)c1c3c(c(-c4ccccc4Cl)cc1n2CCC(=O)O)C(=O)NC3=O` belongs 277 °C; to `CCCc1c(O)ccc2c(=O)cc(CCC(=O)OCC)oc12`, 127 to 128 °C. `N#Cc1cccc(C(=O)Cn2cncn2)c1` gave a melting point of 172 to 173 °C. To `CS(=O)(=O)c1ccc(N2CC(O)(C(F)(F)F)N=C2c2ccc3c(c2)OCO3)cc1` (configuration not stated) belongs 200 to 202 °C; to `O=C1c2ccccc2COc2ccc(Br)cc21`, 132 to 134 °C; to `O=C1NCCc2c(-c3ccc(C(F)(F)F)cc3)[nH]c3cccc1c23`, 208 to 209 °C. To `N=C(N)c1ccc(-c2ccc(Nc3ccc(CCC(=O)O)cc3)nn2)cc1` belongs more than 260 °C; to `Cc1c(-c2nnn[nH]2)oc2c(c1=O)CS(=O)(=O)c1ccccc1-2`, 268 to 270 °C.

For the compound `CCOC(=O)C1=C(N)NC(N)=C(C(=O)OCC)C1c1cccc2ccccc12`, the melting point lay in the range of 162 to 163 °C. To `CN(C)C(=O)c1cccc(C(C(N)=O)c2cccc(Br)c2)c1` (configuration not stated) belongs 119 to 120 °C; to `CCC(=O)N1N=C(c2ccc([N+](=O)[O-])cc2)c2cc3c(cc2CC1C)OCO3` (configuration not stated), 189 to 190 °C. To `O=C(O)c1ccc2c(c1)C(=C(Cl)Cl)OC(=C(Cl)Cl)O2` belongs 199 to 200 °C.

`Oc1ccc(-c2nc(-c3ccc(Sc4ccccc4)cc3)nc(-c3ccc(O)cc3O)n2)c(O)c1` showed a melting point of more than 250 °C. To `CNC1=NS(=O)N=C1NCCCNc1ncc(Br)cc1C` (configuration not stated) belongs 211 to 212 °C; to `Cc1ccc(P(C)(C)=O)cc1`, 90 to 92 °C. To `Cc1cccc(N)c1C(=O)Nc1nnn[nH]1` belongs 248 °C; to `Cc1c(C#N)c(-c2ccc(C#N)cc2)c(C)n1Cc1cnc(Cl)c(COC(=O)CCC(=O)O)c1`, 187 to 188 °C. To `CN(C)CCCCCCCCCOc1ccc2oc(-c3ccccc3)cc(=O)c2c1` belongs 52 to 53 °C; to `COc1ccc2c(c1OC)CCC1C(=O)NC(=O)C21` (configuration not stated), 217 to 219 °C.
